pKi: −log10 of the molar value. Like-named read-outs stand apart in the source and are kept apart here.
Legend:
human Oxytocin receptor = molecular target: T1, human Oxytocin receptor (Homo sapiens, UniProt P30559); test: Oxytocin receptor binding assay (125I-OVT, SPA)
T1 construct: expressed in transfected cells; host or cells: CHO
T1 sequence (P30559 1-389): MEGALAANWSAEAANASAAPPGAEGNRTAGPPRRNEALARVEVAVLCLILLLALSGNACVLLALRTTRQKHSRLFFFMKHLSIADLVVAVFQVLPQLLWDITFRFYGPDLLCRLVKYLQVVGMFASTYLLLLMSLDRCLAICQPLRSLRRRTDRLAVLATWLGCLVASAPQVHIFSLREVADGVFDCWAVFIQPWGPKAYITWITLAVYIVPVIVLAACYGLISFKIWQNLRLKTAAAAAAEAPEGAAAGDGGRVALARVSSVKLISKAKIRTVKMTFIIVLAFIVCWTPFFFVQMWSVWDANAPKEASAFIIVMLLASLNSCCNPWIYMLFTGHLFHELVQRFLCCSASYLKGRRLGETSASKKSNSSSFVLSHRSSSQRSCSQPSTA
Method: As an example for a selectivity assay, an oxytocin receptor binding assay is described below.
CHO-cells engineered to express the human Oxytocin receptor are maintained, and membrane preparations from such cells are prepared according to standard techniques (see e.g. Example 2). They are diluted to 1 mg/ml protein concentration in assay buffer (50 mM Tris-HCl, pH7.8; 10 mM Mg Cl2; 0.25% BSA). SPA beads are resuspended at 50 mg/ml in assay buffer. From these concentrations, beads are pre-coupled with membranes by incubating 30 µg of protein per mg of bead on a top-to-tail shaker for 2 hours at 4 °C. The bead/membranes are then centrifuged at 2000 rpm for 10 mins and the pellet is resuspended at 3 mg/ml.
All manipulations of the ^125I-OVT (NEN, NEX254) are carried out using tips that have been silanised using SigmaCote. All bottles and tubes are also silanised. […] A 5 µl sample is then counted in duplicate using liquid scintillation counting (protocol 61 on Wallac Counter) and the concentration of the ligand is calculated. […] Using the measured concentration, the ^125I-OVT is diluted to 0.3 nM in assay buffer.
20 µl of the bead/membrane preparation is added to the prepared Optiplates using the Multi-drop, after the desired dilutions of test compounds are added to the wells. […] Following a 4 hour incubation at room temperature, the plates are counted using the TopCount NXT for 30s/well.

anaesthetised rats = test: p-chloroamphetamine (PCA)-induced ejaculation and penile erection in anaesthetised rats; type: in vivo, Male Sprague Dawley rats; conditions: for delay of p-chloroamphetamine (PCA)-induced ejaculation: vasopressin selective doses, plasma concentration of 9-31 nM; for Penile Cups / Penile Flares: % of PCA-induced erections
Method: In order to study penile erection and ejaculation the method used was based on the methodology taught in Yonezawa et al (2000) Life Sciences 67, 3031-3039. For ease of reference, this methodology is described below:
Male Sprague Dawley rats, weighing 350-450 g, are used. Prior to the experiments the animals are housed in groups (2 rats per cage) under controlled 12 h light-dark cycle (lights on at 07:00), constant temperature (23±1°C) and humidity (55±5%). They have free access to standard food pellets and water.
Rats are anesthestised with sodium pentobarbitone (50mg/kg, i.p.) and are placed in the supine position. The penis is extruded from its sheath and gently held by a wooden applicator positioned at the base of the penis. The test compounds are administered by intravenous infusion and p-chloroamphetamine (PCA) (5-10mg/kg) is administered i.p. immediately before the sheath retraction and the penile responses, including penile erection, redding and expansion of the penile body, glans erection, engorgement and slight flaring of the glans and cup, glans erection with Intense flaring of the glans, are recorded. Latencies from PCA administration to the initial penile response and ejaculation is also measured In seconds. […]

human V1A receptor = molecular target: T2, human V1A receptor (Homo sapiens, UniProt P37288); test: Ligand binding assay, [3H]-AVP binding to CHO-hV1A membranes
T2 construct: expressed in transfected cells; host or cells: CHO (CHO-hV1A cell line provided by Marc Thibonnier, Case Western Reserve University)
Method: Receptor binding assays were performed on cellular membranes prepared from CHO cells stably expressing the human V1A receptor, (CHO-hV1A). […] CHO-hV1A cells were routinely maintained at 37°C In humidified atmosphere with 5% CO2 in DMEM/Hams F12 nutrient mix supplemented with 10 % fetal bovine serum, 2 mM L-glutamine, 15 mM HEPES and 400 µg/ml G418. For bulk production of cell pellets, adherent CHO-hV1A cells were grown to confluency of 90-100% in 850 cm^2 roller bottles containing a medium of DMEM/Hams F12 Nutrient Mix supplemented with 10 % fetal bovine serum, 2 mM L-glutamine and 15 mM HEPES. Confluent CHO-hV1A cells were washed with phosphate-buffered saline (PBS), harvested into ice cold PBS and centrifuged at 1,000 rpm. Cell pellets were stored at -80°C until use. Cell pellets were thawed on ice and homogenised in membrane preparation buffer consisting of 50 mM Tris-HCI, pH 7.4, 5 mM MgCl2 and supplemented with a protease inhibitor cocktail, (Roche). The cell homogenate was centrifuged at 1000 rpm, 10 min, 4°C and the supernatant was removed and stored on ice. The remaining pellet was homogenised and centrifuged as before. The supernatants were pooled and centrifuged at 25,000 x g for 30 min at 4°C. The pellet was resuspended in freezing buffer consisting of 50 mM Tris-HCI, pH 7.4, 5 mM MgCl2 and 20 % glycerol and stored in small aliquots at -80°C until use. Protein concentration was determined using Bradford reagent and BSA as a standard.
Protein linearity followed by saturation binding studies were performed on each new batch of membrane. A membrane concentration was chosen that gave specific binding on the linear portion of the curve. […]
Compounds were tested for their effects on [^3H]-AVP binding to CHO-hV1A membranes, (^3H-AVP; specific activity 65.5 Ci/mmol; NEN Life Sciences). […] The plates were sealed and counted on a TopCount Microplate Scintillation Counter (Packard Instruments). Non-specific binding (NSB) was determined using 1 µM unlabelled d(CH2)5Tyr(Me)AVP ([β-mercapto-β,β-cyclopentamethylene-propionyl,0-Me-Tyr^2,Arg^8]-vasopressin) (βMCPVP), (Sigma). The radioligand binding data was analysed using a four parameter logistic equation with the min forced to 0%. […] Specific binding was calculated by subtracting the mean NSB cpm from the mean Total cpm. For test compounds the amount of ligand bound to the receptor was expressed as % bound = (sample cpm - mean NSB cpm)/specific binding cpm x100. […] The Inhibitory dissociation constant (Ki) was calculated using the Cheng-Prusoff equation: Ki=IC50/(1+[L]/Kd) where [L] is the concentration of ligand present in the well and Kd is the dissociation constant of the radioligand obtained from Scatchard plot analysis.

conscious rats = test: Copulatory behaviour in conscious rats (ejaculatory latency); type: in vivo; conditions: 0.05mgkg^-1 sc
Method: For all the sexual behavour tests, the male rats were placed in an observation arena (50-60 cm diameter), starting 5 hours into the dark cycle and observed under red ilumination. Three to four minutes after placing the male in the arena, a receptive female (ovariectomised, oestradiol benzoate / progesterone injection 48 hour before behavioural study) was Introduced into the arena and the following parameters noted: • i) ejaculatory latency (EJL; time taken from addition of receptive female into the arena to ejaculation); • ii) copulatory efficiency (CE; ejaculatory latency/ the number of intromissions to ejaculation, i.e. the number of seconds between intromissions); • iii) intromission frequency (IF; the number of intromissions to ejaculation); • iv) mount frequency (MF; the number of mounts to ejaculation); • v) post ejaculatory interval (PEI; the time taken from ejaculation to the commencement of copulatory behaviour).
Rodent copulatory behaviour is characterised by a series of mounts, with and without vaginal insertion (50-80% of mounts result in intromission [vaginal penetration]) and ejaculation occurs after 6 to 12 intromissions. Each intromission lasts a matter of seconds - it is not possible to quantify intromission length i.e. intravaginal latency. The effect of L-371257 was assessed on a number of copulatory parameters (see above). […]

[1] = Plasma concentration in the copulatory behaviour study; type: in vivo; conditions: 0.05mgkg^-1 sc, rats
[2] = plasma conc 30.9nM, listed as compound 1

T2 sequence (P37288 whole entry): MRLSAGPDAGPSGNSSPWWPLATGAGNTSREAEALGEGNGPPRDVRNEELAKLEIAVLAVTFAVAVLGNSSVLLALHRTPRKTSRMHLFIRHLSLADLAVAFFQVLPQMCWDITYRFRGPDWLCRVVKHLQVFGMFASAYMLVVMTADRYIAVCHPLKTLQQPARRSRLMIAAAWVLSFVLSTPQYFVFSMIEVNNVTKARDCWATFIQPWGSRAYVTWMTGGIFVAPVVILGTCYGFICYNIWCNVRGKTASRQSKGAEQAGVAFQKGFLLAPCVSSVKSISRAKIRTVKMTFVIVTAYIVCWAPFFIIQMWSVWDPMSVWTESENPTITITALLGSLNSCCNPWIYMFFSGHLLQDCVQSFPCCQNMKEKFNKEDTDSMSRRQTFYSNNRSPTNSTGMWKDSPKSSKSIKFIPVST

| Compound | pKi (human Oxytocin receptor; read-out: oxytocin receptors (OT; Ki OT)) | time taken for the rats to achieve erection (anaesthetised rats; anaesthetised rats, PCA-induced) | Ejaculation was delayed (anaesthetised rats; anaesthetised rats, free plasma concentrations 30.9nM, near maximal effect) [%] | delay of p-chloroamphetamine (PCA)-induced ejaculation (anaesthetised rats; anaesthetised rats) | delay of p-chloroamphetamine (PCA)-induced ejaculation (anaesthetised rats; anaesthetised rats, listed as compound 1) | ejaculation and penile erection (anaesthetised rats; at both plasma conc 11.4nM and 30.9nM) | Penile Cups (anaesthetised rats; plasma conc 11.4nM) [%] | Penile Flares (anaesthetised rats; plasma conc 11.4nM) [%] | Penile Cups (anaesthetised rats; plasma conc 30.9nM) [%] | Penile Flares (anaesthetised rats; plasma conc 30.9nM) [%] | Penile Cups (anaesthetised rats; [2]) [%] | Penile Flares (anaesthetised rats; [2]) [%] | pKi (human V1A receptor) | selective towards vasopressin V1a receptors as compared with oxytocin receptors (human V1A receptor) | pKi (human Oxytocin receptor; read-out: oxytocin receptors (OT)) | other effects on copulatory behaviour (conscious rats) | Increased ejaculatory latency (conscious rats; P<0.05 versus vehicle) [%] | selective towards oxytocin receptors as compared with vasopressin V1a receptors (human V1A receptor; as printed: OT vs V1a) | pKi (human V1A receptor; read-out: vasopressin V1a receptors (V1a; Ki V1a)) | Plasma conc [1] |
| --- | --- | --- | --- | --- | --- | --- | --- | --- | --- | --- | --- | --- | --- | --- | --- | --- | --- | --- | --- | --- |
| COC1CCN(Cc2nnc(C3CCN(c4ccccn4)CC3)n2Cc2ccccc2)CC1 [Compound 1, 4-[4-Benzyl-5-(4-methoxy-piperldin-1-ylmethyl)-4H-[1,2,4]triazol-3-yl]-3,4,5,6-tetrahydro-2H-[1,2']bipyridinyl] | 5.52 | not significantly affected | 100 | delays ejaculation | significantly delayed | * At both of these concentrations Compound 1 delayed ejaculation without affecting penile erection. | 31.6 | 81.5 | 57.0 | 83.6 | 57 | 84 | 7.30 | more than 60 fold | – | – | – | – | – | – |
| COc1cc(OC2CCN(C(C)=O)CC2)ccc1C(=O)N1CCC(N2C(=O)OCc3ccccc32)CC1 [Compound L-371257, reference compound] | – | – | – | – | – | – | – | – | – | – | – | – | – | – | 7.72 | no other significant effects | 67 | more than 5 fold | 8.43 | L-371257 0.05mgkg^-1 sc Plasma conc ∼ 30nM |
